Assay results from PMC10383573, “New Imadazopyrazines with CDK9 Inhibitory Activity as Anticancer and Antiviral: Synthesis, In Silico, and In Vitro Evaluation Approaches” (Pharmaceuticals, 2023).

Assays:
[1] = test system: MCF7, HCT116, and K652 cancer cells; experiment: MTT cytotoxicity assay, average of the three cell lines; format: cell-based
Method: (§1) The cytotoxicity effect of the new compounds was assessed in an MTT assay against chronic myelogenous leukemia (K652), colorectal (HCT116), and breast (MCF7) cancer cell lines. […] The data is presented in Table 4 as IC50 values (in µM).
(§2) Cells were obtained from American Type Culture Collection. The cell culture DMEM was obtained from Life Technologies and Invitrogen and supplied with 10% FBS from Hyclone, 1% penicillin-streptomycin, and 10 µg/mL insulin from Sigma-Aldrich.
(§3) The MTT assay was used to monitor the in vitro cytotoxicity of our compounds. […] Then, the cells were incubated with 10% v/v reconstituted MTT at 37 °C for 3 h.

K652 cancer cells = experiment: MTT cytotoxicity assay, K652; format: cell-based; conditions: K652, 48 h, read-out: IC50 K652
Method: as §1, §2, §3

HCT116 cancer cells = experiment: MTT cytotoxicity assay, HCT116; format: cell-based; conditions: Homo sapiens, HCT-116, 48 h, means (SD) of three trials
Method: as §1, §2, §3

MCF7 cancer cells = experiment: MTT cytotoxicity assay, MCF7; format: cell-based; conditions: Homo sapiens, 48 h, means (SD) of three trials
Method: as §1, §2
The MTT assay was used to monitor the in vitro cytotoxicity of our compounds. […] Then, the cells were incubated with 10% v/v reconstituted MTT at 37 °C for 3 h. The multiwell plates were then read using Wallac Victor2 1420 multilabel counter, and the absorbance was measured at a wavelength of 450 (ex) and 590 nm (em).

CDK9 = CDK9 (Homo sapiens, UniProt P50750); experiment: In vitro CDK9 kinase assay (BPS Biosciences kit)
Chain of CDK9 (P50750 whole entry): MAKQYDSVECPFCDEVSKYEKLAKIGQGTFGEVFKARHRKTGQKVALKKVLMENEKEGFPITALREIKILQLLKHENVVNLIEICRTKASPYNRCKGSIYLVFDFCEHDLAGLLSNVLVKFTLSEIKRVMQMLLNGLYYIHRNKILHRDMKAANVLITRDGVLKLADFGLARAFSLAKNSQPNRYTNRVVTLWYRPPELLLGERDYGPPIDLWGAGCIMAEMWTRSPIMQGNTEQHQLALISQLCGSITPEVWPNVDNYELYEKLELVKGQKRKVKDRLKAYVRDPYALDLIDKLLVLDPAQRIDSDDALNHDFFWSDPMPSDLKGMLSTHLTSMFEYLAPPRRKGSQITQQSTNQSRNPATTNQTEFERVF
Chain of CDK9 (O60563 whole entry, further chain): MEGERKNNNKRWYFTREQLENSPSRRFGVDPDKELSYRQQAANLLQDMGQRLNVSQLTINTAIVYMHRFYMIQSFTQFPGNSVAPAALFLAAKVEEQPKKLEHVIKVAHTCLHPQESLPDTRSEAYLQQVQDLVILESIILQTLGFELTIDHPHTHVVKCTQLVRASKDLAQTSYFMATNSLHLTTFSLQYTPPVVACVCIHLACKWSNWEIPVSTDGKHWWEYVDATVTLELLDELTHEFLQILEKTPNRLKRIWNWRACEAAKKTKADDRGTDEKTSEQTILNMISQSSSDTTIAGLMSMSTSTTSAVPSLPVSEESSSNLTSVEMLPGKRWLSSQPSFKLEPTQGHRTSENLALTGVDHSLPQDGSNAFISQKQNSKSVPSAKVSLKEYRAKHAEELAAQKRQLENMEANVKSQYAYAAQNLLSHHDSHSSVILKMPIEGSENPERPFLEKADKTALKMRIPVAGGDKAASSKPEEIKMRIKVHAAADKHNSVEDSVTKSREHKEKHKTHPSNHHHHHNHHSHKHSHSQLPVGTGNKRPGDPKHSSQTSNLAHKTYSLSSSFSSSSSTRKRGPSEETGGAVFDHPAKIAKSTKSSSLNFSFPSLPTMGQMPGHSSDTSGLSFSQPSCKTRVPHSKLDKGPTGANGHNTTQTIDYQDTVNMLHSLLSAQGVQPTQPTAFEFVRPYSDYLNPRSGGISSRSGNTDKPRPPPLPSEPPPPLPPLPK
Method: The in vitro kinase activity was measured using a CDK9 assay kit obtained from BPS Biosciences (San Diego, CA). The inhibitory effect of the tested compounds was assessed following the manufacturer’s instructions as indicated in the kit. GraphPad Prism 5.0 software was used to analyze the results.

[2] = test system: human Coronavirus (HCoV-229E); experiment: 229E inhibitory assay (cytopathic inhibition effect); format: cell-based, human Coronavirus 229E; conditions: HCoV-229E; for IC50: cytopathic effect inhibition, read-out: IC50 229E inhibitory effect
Method: The antiviral effect of the compounds was examined in a human Coronavirus (HCoV-229E) inhibitory assay. The standard ribavirin (a well-established antiviral agent) was used as a positive control in this experiment.
The cytopathic inhibition effect was used to assess the antiviral and cytotoxicity of the compounds using a method described by Choi et al. (2009). Coronavirus 229E cells were used in this assay. The antiviral activity of the tested compounds was measured as a percentage using a method described by Pauwels et al.’s (1988) research. GraphPad Prism 5.0 software was used to analyze the results. Ribavirin was used as a positive standard in this assay, and DMSO was used as a negative standard.

[3] = Cytotoxicity on target cells in the antiviral assay; conditions: target cells of the HCoV-229E antiviral assay
FHC normal cells = experiment: MTT assay against FHC normal cells; format: cell-based; conditions: for SI (Selectivity Index) HCT116: FHC versus HCT116; for SI (Selectivity Index) K652: FHC versus K652; for SI (Selectivity Index) MCF7: FHC versus MCF7; for IC50: MTT assay, normal noncancerous cells, read-out: FHC IC50
Method: as §3

Compound | IC50 [1] | IC50 (K652 cancer cells) | IC50 (HCT116 cancer cells) | IC50 (MCF7 cancer cells) | IC50 (CDK9) | SI selectivity index (CC50/IC50) [2] | IC50 [2] | CC50 [3] | SI (Selectivity Index) HCT116 (FHC normal cells) | SI (Selectivity Index) K652 (FHC normal cells) | SI (Selectivity Index) MCF7 (FHC normal cells) | IC50 (FHC normal cells)
COc1ccc(Nc2c(-c3ccc(O)cc3O)nc3cnccn23)cc1 [Compound 2d, 4-(3-((4-Methoxyphenyl)amino)imidazo[1,2-a]pyrazin-2-yl)benzene-1,3-diol] | 66.8 µM | 25.3 ± 0.91 µM | 104 ± 0.98 µM | 71.2 ± 0.99 µM | 0.89 ± 0.018 µM |  |  |  |  |  |  | 
CN(C)c1ccc(-c2nc3cnccn3c2NC(C)(C)C)cn1 [Compound 3a, N-(Tert-butyl)-2-(6-(dimethylamino)pyridin-3-yl)imidazo[1,2-a]pyrazin-3-amine] | 35.1 µM | 78.2 ± 1.32 µM | 4.13 ± 0.07 µM | 22.8 ± 0.33 µM | 0.3 ± 0.005 µM | 0.48 | 393 µM | 186 µM |  |  |  | 
CN(C)c1ccc(-c2nc3cnccn3c2NC2CCCCC2)cn1 [Compound 3b, N-Cyclohexyl-2-(6-(dimethylamino)pyridin-3-yl)imidazo[1,2-a]pyrazin-3-amine] | 10.7 µM | 4.5 ± 0.08 µM | 11 ± 0.19 µM | 16.4 ± 0.26 µM | 0.23 ± 0.005 µM | 0.37 | 590 µM | 213 µM | 8.7 | 21.3 | 5.8 | 95.8 ± 1.72 µM
CN(C)c1ccc(-c2nc3cnccn3c2NCc2ccccc2)cn1 [Compound 3c, N-Benzyl-2-(6-(dimethylamino)pyridin-3-yl)imidazo[1,2-a]pyrazin-3-amine] | 26 µM | 26.4 ± 0.43 µM | 42.2 ± 0.68 µM | 9.52 ± 0.15 µM | 0.33 ± 0.007 µM |  |  |  |  |  |  | 
COc1ccc(Nc2c(-c3ccc(N(C)C)nc3)nc3cnccn23)cc1 [Compound 3d, 2-(6-(Dimethylamino)pyridin-3-yl)-N-(4-methoxyphenyl) imidazo[1,2-a]pyrazin-3-amine] | 140 µM | 153 ± 2.99 µM | 147 ± 2.75 µM | 120 ± 2.02 µM | 1.66 ± 0.034 µM |  |  |  |  |  |  | 
CC(C)(C)Nc1c(-c2ccnc(F)c2)nc2cnccn12 [Compound 4a, N-(Tert-butyl)-2-(2-fluoropyridin-4-yl) imidazo[1,2-a] pyrazin-3-amine] | 20.7 µM | 19.6 ± 0.26 µM | 38.2 ± 0.51 µM | 4.38 ± 0.06 µM | 0.24 ± 0.004 µM | 4.8 | 63.3 µM | 303 µM |  |  |  | 
Fc1cc(-c2nc3cnccn3c2NC2CCCCC2)ccn1 [Compound 4b, N-Cyclohexyl-2-(2-fluoropyridin-4-yl) imidazo[1,2-a] pyrazin-3-amine] | 18.2 µM | 23.2 ± 0.81 µM | 15.28 ± 0.13 µM | 16.2 ± 0.41 µM | 1.22 ± 0.011 µM | 0.29 | 618 µM | 174 µM | 4.8 | 3.2 | 4.5 | 74.3 ± 1.26 µM
Fc1cc(-c2nc3cnccn3c2NCc2ccccc2)ccn1 [Compound 4c, N-Benzyl-2-(2-fluoropyridin-4-yl) imidazo[1,2-a] pyrazin-3-amine] | 92.8 µM | 114 ± 1.7 µM | 97.4 ± 1.46 µM | 67.3 ± 1.01 µM | 1.11 ± 0.02 µM | 0.9 | 331 µM | 271 µM |  |  |  | 
COc1ccc(Nc2c(-c3ccnc(F)c3)nc3cnccn23)cc1 [Compound 4d, 2-(2-Fluoropyridin-4-yl)-N-(4-methoxyphenyl) imidazo[1,2-a]pyrazin-3-amine] | 27.5 µM | 47.11 ± 0.26 µM | 10.2 ± 0.16 µM | 25.1 ± 0.39 µM | 0.57 ± 0.011 µM |  |  |  |  |  |  | 
NC(=O)c1ncn([C@@H]2O[C@H](CO)[C@@H](O)[C@H]2O)n1 [Ribavirin, reference compound] |  |  |  |  |  | 1.4 | 114 µM | 160 µM |  |  |  | 
CN[C@@H]1C[C@H]2O[C@@](C)([C@@H]1OC)n1c3ccccc3c3c4c(c5c6ccccc6n2c5c31)C(=O)NC4 [Staurosporine, reference compound] |  |  |  | 18.4 ± 0.4 µM |  |  |  |  |  |  |  | 
